Data: patent US20240174637A1, “DEGRADERS OF GRK2 AND USES THEREOF” (Sonata Therapeutics, Inc., priority 2021, published 2024)
Structures can show the parent of a compound that is named as a salt. Where two headings read alike, the source gives them in different places.

What was measured:
GRK2 [1] = biological target: T1, GRK2 (Homo sapiens, UniProt P25098); assay: GRK2 Inhibition Assay (TR-FRET, Example 1); format: biochemical
T1 sequence (P25098 1-689): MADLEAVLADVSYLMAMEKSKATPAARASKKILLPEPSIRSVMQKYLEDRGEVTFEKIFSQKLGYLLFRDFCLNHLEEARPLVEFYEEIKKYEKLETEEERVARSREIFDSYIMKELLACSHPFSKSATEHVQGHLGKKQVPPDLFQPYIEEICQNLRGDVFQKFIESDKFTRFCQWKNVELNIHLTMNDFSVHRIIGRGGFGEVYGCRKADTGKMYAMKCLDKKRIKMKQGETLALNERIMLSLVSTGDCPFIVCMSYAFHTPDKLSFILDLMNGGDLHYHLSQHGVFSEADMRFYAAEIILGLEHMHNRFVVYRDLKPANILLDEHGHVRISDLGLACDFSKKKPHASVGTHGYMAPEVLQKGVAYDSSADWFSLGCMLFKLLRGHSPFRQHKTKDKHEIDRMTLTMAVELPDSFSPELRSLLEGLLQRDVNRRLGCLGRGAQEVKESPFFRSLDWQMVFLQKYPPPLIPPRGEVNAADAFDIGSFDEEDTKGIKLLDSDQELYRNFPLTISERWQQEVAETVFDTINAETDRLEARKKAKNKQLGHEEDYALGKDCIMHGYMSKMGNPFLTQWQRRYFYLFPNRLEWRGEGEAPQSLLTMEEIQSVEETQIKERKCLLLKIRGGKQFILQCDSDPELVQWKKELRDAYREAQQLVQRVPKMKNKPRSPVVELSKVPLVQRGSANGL
Method in brief: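 TR-FRET phosphorylation readout: Eu anti-TopoIIα antibody with EDTA added after a 90 min RT kinase reaction of 1 nM GRK2, 7 μM ATP and 50 nM ULight-TopoIIα. Compounds were pre-incubated with enzyme 30 min at room temperature beforehand.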

PAXF1657 EV = assay: 7-day cellular proliferation assay (CellTiter-Glo), PAXF1657 EV; format: cell-based
Method in brief: (§1)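 500 cells/well, RPMI1640 + 10% H.I. FBS, adhered overnight at 37° C. Compound 10-pt dilution, 30 μM-0.0002 μM final, 0.3% DMSO. 3 d, media + compound replaced, further 4 d. Viability by CellTiter-Glo; untreated plates read at time of dosing.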

PAXF1657 KO Clone #4 = assay: 7-day cellular proliferation assay (CellTiter-Glo), PAXF1657 KO Clone #4; format: cell-based
Method in brief: as §1

GRK2 [2] = biological target: T1, GRK2; assay: GRK2 Degradation Assay and Western Blot in PAXF1657 cells; format: cell-based; set-up: endogenous in cells; host or cells: PAXF1657; details: for DC50: PAXF1657, 24 h, read-out: Degradation Assay - Full Dose Response: IC50 (uM) [cell line: PAXF1657, time point: 24 h]
Method in brief: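 GRK2 degradation judged by immunoblot: NP40 lysates separated by SDS-PAGE and probed for GRK2 and β-actin, with HRP/ECL detection. Lysates came from PAXF1657 cells exposed to 0–10 μM compound for 6–24 h after reaching 70% confluency.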

[3] = Table 4, Example 1 assay, read-out: Enzymatic GRK2 IC50: Av IC50 GRK2
[4] = proliferation, read-out: GeoMean IC50 (UM) PAXF1657 EV
[5] = proliferation, read-out: GeoMean IC50 (uM) PAXF1657 KO Clone #4
[6] = Conc 0.3 uM, read-out: Degradation Assay - 3 point: Degradation (%)
[7] = Conc 1 uM, read-out: Degradation Assay - 3 point: Degradation (%)
[8] = Conc 3 uM, read-out: Degradation Assay - 3 point: Degradation (%)
[9] = TR-FRET, 7 μM ATP, read-out: Enzymatic GRK2 Assay: IC50 (nM) (Example 1)
[10] = 168 h, 7-day, read-out: 7-day proliferation assay: IC50 GeoMean (uM) [Cell Line: PAXF1657 EV]
[11] = 168 h, 7-day, read-out: 7-day proliferation assay: IC50 GeoMean (uM) [Cell Line: PAXF1657 KO Clone #4]
[12] = 0.3 uM, PAXF1657 EV, 24 hrs, read-out: % GRK2 degradation at 0.3 uM in PAXF1657 EV (24 hrs)
[13] = 1 uM, PAXF1657 EV, 24 hrs, read-out: % GRK2 degradation at 1 uM in PAXF1657 EV (24 hrs)
[14] = 3 uM, PAXF1657 EV, 24 hrs, read-out: % GRK2 degradation at 3 uM in PAXF1657 EV (24 hrs)

| IC50 (GRK2 [1]; [3]) [nM] | inhibition at 0.3 µM (GRK2 [2]; [6]) [%] | inhibition at 1 µM (GRK2 [2]; [7]) [%] | inhibition at 3 µM (GRK2 [2]; [8]) [%] | DC50 (GRK2 [2]) [µM] | IC50 (GRK2 [1]; [9]) [nM] | inhibition at 0.3 µM (GRK2 [2]; [12]) [%] | inhibition at 1 µM (GRK2 [2]; [13]) [%] | inhibition at 3 µM (GRK2 [2]; [14]) [%] | % GRK2 degradation at 0.03 uM in PAXF1657 EV (24 hrs) (GRK2 [2]; 0.03 uM, PAXF1657 EV, 24 hrs) [%] | % GRK2 degradation at 0.1 uM in PAXF1657 EV (24 hrs) (GRK2 [2]; 0.1 uM, PAXF1657 EV, 24 hrs) [%] | % GRK2 degradation at 10 uM in PAXF1657 EV (24 hrs) (GRK2 [2]; 10 uM, PAXF1657 EV, 24 hrs) [%] | GRK2 degradation, dose dependence (FIGS. 1A-1D) (GRK2 [2]; 24-hour treatment in PAXF1657 cells) | SMILES | IC50 (PAXF1657 EV; [4]) [µM] | IC50 (PAXF1657 KO Clone #4; [5]) [µM] | IC50 (PAXF1657 EV; [10]) [µM] | IC50 (PAXF1657 KO Clone #4; [11]) [µM] |
| --- | --- | --- | --- | --- | --- | --- | --- | --- | --- | --- | --- | --- | --- | --- | --- | --- | --- |
| 14.1 | 51 | 72.7 | 72.9 | – | – | – | – | – | – | – | – | – | Cc1ncsc1-c1ccc(CNC(=O)[C@@H]2C[C@@H](O)CN2C(=O)[C@@H](NC(=O)CCCCCOCCOCCOCCCCCCOc2cccc([C@@H](C)NC(=O)c3cccc(NCc4nnc(-c5ccncn5)n4C)c3)c2)C(C)(C)C)cc1 [Compound D162] | 0.49 | 11.4 | – | – |
| 18.6 | 52.5 | 48.5 | 14.7 | – | – | – | – | – | – | – | – | – | C[C@@H](NC(=O)c1cccc(NCc2nnc(-c3ccncn3)n2C)c1)c1ccc(OCCCN2CCN(c3ccc4c(c3)CN(C3CCC(=O)NC3=O)C4=O)CC2)cc1 (stereo partly drawn) [Compound D173] | 0.03 | 0.26 | – | – |
| 20.2 | 85 | 92 | 95 | 0.137 | – | – | – | – | – | – | – | – | C[C@@H](NC(=O)c1cccc(NCc2nnc(-c3ccncn3)n2C)c1)c1cccc(OCCCCCCOCCOCC(=O)N2CCN(c3ccc4c(c3)CN(C3CCC(=O)NC3=O)C4=O)CC2)c1 (stereo partly drawn) [Compound D138, N-((1R)-1-(3-(6-(2-(2-(4-(2-(2,6-dioxopiperidin-3-yl)-1-oxoisoindolin-5-yl)piperazin-1-yl)-2-oxoethoxy)ethoxy)hexyloxy)phenyl)ethyl)-3-((4-methyl-5-(pyrimidin-4-yl)-4H-1,2,4-triazol-3-yl)methylamino)benzamide hydrochloride] | 0.66 | > 30 | – | – |
| 25 | 92 | 87 | 83 | – | – | – | – | – | – | – | – | – | C[C@@H](NC(=O)c1cccc(NCc2nnc(-c3ccncn3)n2C)c1)c1cccc(OCCCCCOCCCOCCOc2ccc3c(c2)CN(C2CCC(=O)NC2=O)C3=O)c1 (stereo partly drawn) [Compound D160, N-((1R)-1-(3-((5-(3-(2-((2-(2,6-dioxopiperidin-3-yl)-1-oxoisoindolin-5-yl)oxy)ethoxy)propoxy)pentyl)oxy)phenyl)ethyl)-3-(((4-methyl-5-(pyrimidin-4-yl)-4H-1,2,4-triazol-3-yl)methyl)amino)benzamide] | 0.05 | > 30 | – | – |
| 4.56 | 93.2 | 94.1 | 88 | 0.04 | – | – | – | – | – | – | – | – | C[C@@H](NC(=O)c1cccc(NCc2nnc(-c3ccncn3)n2C)c1)c1cccc(OCCCCCCOCCN2CCN(c3ccc4c(c3)CN(C3CCC(=O)NC3=O)C4=O)CC2)c1 (stereo partly drawn) [Compound D126, N-((1R)-1-(3-(6-(2-(4-(2-(2,6-dioxopiperidin-3-yl)-1-oxoisoindolin-5-yl)piperazin-1-yl)ethoxy)hexyloxy)phenyl)ethyl)-3-((4-methyl-5-(pyrimidin-4-yl)-4H-1,2,4-triazol-3-yl)methylamino)benzamide] | 0.13 | > 30 | – | – |
| – | – | – | – | – | < 100 | 6 | 0 | 23 | – | – | – | – | Cc1ncsc1-c1ccc(CNC(=O)[C@@H]2C[C@@H](O)CN2C(=O)[C@@H](NC(=O)CCCCc2cn(CCCCCOc3cccc(CNC(=O)c4cccc(NCc5nnc(-c6ccncn6)n5C)c4)c3)nn2)C(C)(C)C)cc1 [Compound D80] | – | – | > 10 | > 10 |
| 16.3 | -23.2 | 8.53 | -38.6 | – | – | – | – | – | – | – | – | – | C[C@@H](NC(=O)c1cccc(NCc2nnc(-c3ccncn3)n2C)c1)c1cccc(OCCN2CCN(c3ccc4c(c3)CN(C3CCC(=O)NC3=O)C4=O)CC2)c1 (stereo partly drawn) [Compound D128, N-((1R)-1-(3-(2-(4-(2-(2,6-dioxopiperidin-3-yl)-1-oxoisoindolin-5-yl)piperazin-1-yl)ethoxy)phenyl)ethyl)-3-((4-methyl-5-(pyrimidin-4-yl)-4H-1,2,4-triazol-3-yl)methylamino)benzamide] | 0.8 | > 30 | – | – |
| – | – | – | – | – | < 100 | 40 | 55 | 71 | 8 | 8 | 58 | Dose dependent | Cn1c(CNc2cccc(C(=O)NCc3cc(OCCCCCCOCCOCCOCCCCCC(=O)Nc4cccc5c4CN(C4CCC(=O)NC4=O)C5=O)ccc3F)c2)nnc1-c1ccncn1 (stereo not drawn) [Compound D66, N-(5-((6-(2-(2-((6-((2-(2,6-dioxopiperidin-3-yl)-1-oxoisoindolin-4-yl)amino)-6-oxohexyl)oxy)ethoxy)ethoxy)hexyl)oxy)-2-fluorobenzyl)-3-(((4-methyl-5-(pyrimidin-4-yl)-4H-1,2,4-triazol-3-yl)methyl)amino)benzamide] | – | – | > 10 | > 10 |
| 54.9 | 26.1 | 45.9 | 66.6 | – | – | – | – | – | – | – | – | – | Cc1ncsc1-c1ccc(CNC(=O)[C@@H]2C[C@@H](O)CN2C(=O)[C@@H](NC(=O)CCCCOCCOCCOCCCCCCOc2cccc(CNC(=O)c3cccc(NCc4nnc(-c5ccncn5)n4C)c3)c2)C(C)(C)C)cc1 [Compound D109, (2S,4R)-1-((S)-2-(tert-butyl)-21-(3-((3-(((4-methyl-5-(pyrimidin-4-yl)-4H-1,2,4-triazol-3-yl)methyl)amino)benzamido)methyl)phenoxy)-4-oxo-9,12,15-trioxa-3-azahenicosan-1-oyl)-4-hydroxy-N-(4-(4-methylthiazol-5-yl)benzyl)pyrrolidine-2-carboxamide] | 0.68 | 5.17 | – | – |
| 12.5 | 71.2 | 79.2 | 80.4 | – | – | – | – | – | – | – | – | – | C[C@@H](NC(=O)c1cccc(NCc2nnc(-c3ccncn3)n2C)c1)c1ccc(OCCCCCCOCCOCCOCCC(=O)N2CCN(c3cc4c(cc3F)C(=O)N(C3CCC(=O)NC3=O)C4=O)CC2)cc1 (stereo partly drawn) [Compound D137, N-((1R)-1-(4-(6-(2-(2-(3-(4-(2-(2,6-dioxopiperidin-3-yl)-6-fluoro-1,3-dioxoisoindolin-5-yl)piperazin-1-yl)-3-oxopropoxy)ethoxy)ethoxy)hexyloxy)phenyl)ethyl)-3-((4-methyl-5-(pyrimidin-4-yl)-4H-1,2,4-triazol-3-yl)methylamino)benzamide] | 0.14 | 22.8 | – | – |

| SMILES | IC50 (GRK2 [1]; [3]) [nM] | inhibition at 0.3 µM (GRK2 [2]; [6]) [%] | inhibition at 1 µM (GRK2 [2]; [7]) [%] | inhibition at 3 µM (GRK2 [2]; [8]) [%] | DC50 (GRK2 [2]) [µM] | IC50 (GRK2 [1]; [9]) [nM] | inhibition at 0.3 µM (GRK2 [2]; [12]) [%] | inhibition at 1 µM (GRK2 [2]; [13]) [%] | inhibition at 3 µM (GRK2 [2]; [14]) [%] | % GRK2 degradation at 0.03 uM in PAXF1657 EV (24 hrs) (GRK2 [2]; 0.03 uM, PAXF1657 EV, 24 hrs) [%] | % GRK2 degradation at 0.1 uM in PAXF1657 EV (24 hrs) (GRK2 [2]; 0.1 uM, PAXF1657 EV, 24 hrs) [%] | % GRK2 degradation at 10 uM in PAXF1657 EV (24 hrs) (GRK2 [2]; 10 uM, PAXF1657 EV, 24 hrs) [%] | GRK2 degradation, dose dependence (FIGS. 1A-1D) (GRK2 [2]; 24-hour treatment in PAXF1657 cells) | IC50 (PAXF1657 EV; [4]) [µM] | IC50 (PAXF1657 KO Clone #4; [5]) [µM] | IC50 (PAXF1657 EV; [10]) [µM] | IC50 (PAXF1657 KO Clone #4; [11]) [µM] |
| --- | --- | --- | --- | --- | --- | --- | --- | --- | --- | --- | --- | --- | --- | --- | --- | --- | --- |
| C[C@@H](NC(=O)c1cccc(NCc2nnc(-c3ccncn3)n2C)c1)c1ccc(OCCCCCCOCCOCCOCCCC(=O)Nc2cccc3c2CN(C2CCC(=O)NC2=O)C3=O)cc1 (stereo partly drawn) [Compound D127, N-((1R)-1-(4-(6-(2-(2-(4-(2-(2,6-dioxopiperidin-3-yl)-1-oxoisoindolin-4-ylamino)-4-oxobutoxy)ethoxy)ethoxy)hexyloxy)phenyl)ethyl)-3-((4-methyl-5-(pyrimidin-4-yl)-4H-1,2,4-triazol-3-yl)methylamino)benzamide] | 2.2 | 81.4 | 82.1 | 78.5 | – | – | – | – | – | – | – | – | – | 0.1 | > 30 | – | – |
